In US20250032676A1, “3D HYDROGEL COMPOSITE HAVING CANCER CELL APOPTOTIC EFFECT AND PREPARATION METHOD THEREOF” (DONGGUK UNIVERSITY INDUSTRY-ACADEMIC COOPERATION FOUNDATION, priority 2022, published 2025):

Test system: MDA-MB-231 breast cancer cells
Assay: Cell killing by 6-MP released from hydrogel versus 6-MP at same concentration, WST-1 assay
Assay type: cell-based
Settings: 24 h treatment, same 6-MP concentration; FIG. 12
Description: The apoptotic effect resulting from the release of anticancer agents was confirmed by comparing the effects of anticancer agents released due to chemical bond cleavage during photoirradiation with that of anticancer agents at the same concentration.
The three-dimensional hydrogels prepared according to Examples 1 to 3 to have a diameter of 8 mm and a height of 2 mm were stored together with 1 mL of PBS at 37° C. and 100 RPM. MDA-MB-231 breast cancer cells were inoculated at a density of 4×10^4 cells per well on a 48-well plate prepared with DMEM supplemented with 10% FBS and 1% penicillin/streptomycin and cultured at 37° C. for one day. After removal of the existing medium, cancer cells were treated with 50 μL of fresh medium and 150 μL of PBS containing released 6-MP, and incubated at 37° C. for 24 h. For the WST-1 assay, the cells were washed with PBS, treated with EZ-Cytox solution in each experimental group, incubated at 37° C. for 2 hours, and then measured by absorbance at 450 nm to confirm the cell apoptosis effect.

| Structure (SMILES) | breast cancer cells died / killed [%] |
| --- | --- |
| S=c1nc[nH]c2nc[nH]c12 | 70 |
| Sc1ncnc2nc[nH]c12 [6-MP, 6-mercaptopurine] | 21 |
